Where a name gives a salt, the structure may show the parent alone.
Experiment: Excretion and recovery of radioactivity after single oral administration, target dose 1 mg free base/kg
Assay type: in vivo, male Sprague Dawley rats
Parameters: Excretion of Radioactivity, Urine / Excretion of Radioactivity, Cage Wash: unit not given beside the values
Details: for Recovery of Radioactivity, Carcass / Recovery of Radioactivity, GI Tract: at 168 hours
Excerpt: [^14C] N,N,-diethyl-8,8-dipropyl-2-azaspiro[4,5]decane-2-propanamine dimaleate salt, (“Compound II”) with a specific activity of 91 uCi/mg and chemical purity >99%, and non-radiolabeled dimaleate salt of N,N,-diethyl-8,8-dipropyl-2-azaspiro[4,5]decane-2-propanamine dimaleate (Compound 1) chemical purity >98%, respectively, were used in this study. The site of the radiocarbon label in Compound II is depicted by an asterisk in Formula II. The non-radiolabeled material was used for reference purposes. The radiolabeled material was stored at ca −80° C. in the dark and the non-radiolabeled material at ca −20° C. in the dark.
Three healthy male Sprague Dawley rats (Crl:CD(SD)BR), age ca 8-9 weeks, body weights at dosing 237-255 g, were supplied by Charles River (UK) Limited. The animals were housed in holding cages suitable for this species for 8 days prior to use. SDS Rat and Mouse Maintenance Diet No. 1, (Special Diets Services, Witham Essex), and mains quality water were available ad libitum throughout. The diet and water supplied to the animals were routinely analyzed for quality and no problems were detected. Holding and study areas had automatic control of light cycle and temperature. The actual range of temperature measured during the study was 17-25° C. with relative humidity measured at 60%.
The dose was prepared for oral administration on the day of dosing. […]
For each rat, an aliquot of the dose solution was administered orally by gavage. […] For each dose, the combined weight of dose and dosing equipment were recorded prior to dosing and the discharged dosing equipment was weighed after dosing. The concentration of radioactive material in each dose solution was also determined.
Immediately following dosing, the rats were placed into all glass metabolism cages suitable for the quantitative collection of excreta and expired air. All samples were collected into individual, uniquely labeled containers.
[…] The collection containers were cooled by solid CO2 during the first 48 hours after dosing.
[…] Collection containers were cooled by solid CO2 during the first 48 hours.
At the time of each feces collection, each cage was washed with water (ca 750 mL) and the washings were retained for radioassay. During the periods 0-24 h and 24-48 hours after dosing, expired air was passed through 2 serial traps containing ethanolamine:ethoxyethaonol (3:7, v/v) in order to effect the removal of CO2. The trap solvent was sampled for radioassay at the end of each collection period.
At 168 hours post dose, each animal was killed by CO2 narcosis and cervical dislocation. Gastrointestinal tracts were removed and retained separately from the carcasses in preparation for radioassay.
Duplicate aliquots of urine (ca 0.3 mL) and cage washings (ca 1 mL) were dispensed, diluted to 1 mL with distilled water (if considered necessary) and mixed with Quickzint 1 scintillation fluid (10 mL; Zinsser Analytic Maidenhead, UK).
Feces were homogenised in 1 to 2 volumes of water with the sample and homogenate weight recorded. Duplicate aliquots (ca 0.3 ) were taken from each sample and dispensed onto combustopads contained in combustocones (Canberra Packard Limited, Pangbourne, UK). When dry, these samples were combusted using a Packard Tri-Carb 306 Automatic Sample Oxidiser. The resultant ^14CO2 generated was collected by absorption in Carbo-Sorb® (8 mL; Canberra Packard Limited) to which Permafluor®E^+ scintillation fluid (10 mL; Canberra Packard Limited) was added.
For each rat, the carcass and gastro-intestinal tract with contents were solubilised in Soluene 350 (Canberra Packard). When dissolved, portions of the digest (ca 0.1 mL) were taken for liquid scintillation spectrometry. The volume was made up to 1 mL by the addition of methanol then 10 mL Quickzint was added and the samples counted as for the other liquid samples. […]

[1] = 168 hour collection period, #3 male

CCCC1(CCC)CCC2(CCN(CCCN(CC)CC)C2)CC1 [Compound II, [^14C] N,N,-diethyl-8,8-dipropyl-2-azaspiro[4,5]decane-2-propanamine dimaleate salt]
Excretion of Radioactivity, Urine (0-6 hours, #1 male): 0.1 | Excretion of Radioactivity, Urine (0-6 hours, #2 male): 0.1 | Excretion of Radioactivity, Urine (0-6 hours, #3 male): 0.1 | Excretion of Radioactivity, Cage Wash (0-24 hours, #1 male): 0.1 | Excretion of Radioactivity, Feces (0-24 hours, #1 male): 18.2 | Excretion of Radioactivity, Cage Wash (0-24 hours, #2 male): 0.1 | Excretion of Radioactivity, Feces (0-24 hours, #2 male): 14.7 | Excretion of Radioactivity, Cage Wash (0-24 hours, #3 male): *<0.1 | Excretion of Radioactivity, Feces (0-24 hours, #3 male): 17.7 | Excretion of Radioactivity, Cage Wash (0-24 hours, Mean): ^+0.1 | Excretion of Radioactivity, Feces (0-24 hours, Mean): 16.9 | Dose recovered in expired air (0-48 hours): Less than 0.2 % of the dose | Excretion of Radioactivity, Cage Wash (0-168 hours, #1 male): 0.7 | Excretion of Radioactivity, Feces (0-168 hours, #1 male): 64.0 | Excretion of Radioactivity, Urine (0-168 hours, #1 male): 6.9 | Excretion of Radioactivity, Cage Wash (0-168 hours, #2 male): 1.0 | Excretion of Radioactivity, Feces (0-168 hours, #2 male): 65.7 | Excretion of Radioactivity, Urine (0-168 hours, #2 male): 8.9 | Excretion of Radioactivity, Cage Wash (0-168 hours, #3 male): 1.3 | Excretion of Radioactivity, Feces (0-168 hours, #3 male): 66.7 | Excretion of Radioactivity, Urine (0-168 hours, #3 male): 9.8 | Excretion of Radioactivity, Cage Wash (0-168 hours, Mean): 1.0 | Excretion of Radioactivity, Feces (0-168 hours, Mean): 65.5 | Excretion of Radioactivity, Urine (0-168 hours, Mean): 8.5 | Excretion of Radioactivity, Urine (6-24 hours, #1 male): 0.4 | Excretion of Radioactivity, Urine (6-24 hours, #2 male): 0.5 | Excretion of Radioactivity, Urine (6-24 hours, #3 male): 0.5 | Excretion of Radioactivity, Urine (6-24 hours, Mean): 0.5 | Excretion of Radioactivity, Cage Wash (24-48 hours, #1 male): 0.1 | Excretion of Radioactivity, Feces (24-48 hours, #1 male): 16.3 | Excretion of Radioactivity, Urine (24-48 hours, #1 male): 1.0 | Excretion of Radioactivity, Cage Wash (24-48 hours, #2 male): <0.1 | Excretion of Radioactivity, Feces (24-48 hours, #2 male): 17.2 | Excretion of Radioactivity, Urine (24-48 hours, #2 male): 1.4 | Excretion of Radioactivity, Cage Wash (24-48 hours, #3 male): 0.1 | Excretion of Radioactivity, Feces (24-48 hours, #3 male): 14.5 | Excretion of Radioactivity, Urine (24-48 hours, #3 male): 1.4 | Excretion of Radioactivity, Cage Wash (24-48 hours, Mean): 0.1 | Excretion of Radioactivity, Feces (24-48 hours, Mean): 16.0 | Excretion of Radioactivity, Urine (24-48 hours, Mean): 1.3 | Excretion of Radioactivity, Cage Wash (48-72 hours, #1 male): <0.1 | Excretion of Radioactivity, Feces (48-72 hours, #1 male): 10.0 | Excretion of Radioactivity, Urine (48-72 hours, #1 male): 1.2 | Excretion of Radioactivity, Cage Wash (48-72 hours, #2 male): 0.2 | Excretion of Radioactivity, Feces (48-72 hours, #2 male): 15.2 | Excretion of Radioactivity, Urine (48-72 hours, #2 male): 1.5 | Excretion of Radioactivity, Cage Wash (48-72 hours, #3 male): 0.2 | Excretion of Radioactivity, Feces (48-72 hours, #3 male): 12.7 | Excretion of Radioactivity, Urine (48-72 hours, #3 male): 1.7 | Excretion of Radioactivity, Cage Wash (48-72 hours, Mean): 0.1 | Excretion of Radioactivity, Feces (48-72 hours, Mean): 12.6 | Excretion of Radioactivity, Urine (48-72 hours, Mean): 1.5 | Excretion of Radioactivity, Cage Wash (72-96 hours, #1 male): 0.1 | Excretion of Radioactivity, Feces (72-96 hours, #1 male): 7.5 | Excretion of Radioactivity, Urine (72-96 hours, #1 male): 1.3 | Excretion of Radioactivity, Cage Wash (72-96 hours, #2 male): 0.2 | Excretion of Radioactivity, Feces (72-96 hours, #2 male): 7.8 | Excretion of Radioactivity, Urine (72-96 hours, #2 male): 1.6 | Excretion of Radioactivity, Cage Wash (72-96 hours, #3 male): 0.3 | Excretion of Radioactivity, Feces (72-96 hours, #3 male): 8.0 | Excretion of Radioactivity, Urine (72-96 hours, #3 male): 2.0 | Excretion of Radioactivity, Cage Wash (72-96 hours, Mean): 0.2 | Excretion of Radioactivity, Feces (72-96 hours, Mean): 7.8 | Excretion of Radioactivity, Urine (72-96 hours, Mean): 1.6 | Excretion of Radioactivity, Cage Wash (96-120 hours, #1 male): 0.1 | Excretion of Radioactivity, Feces (96-120 hours, #1 male): 5.5 | Excretion of Radioactivity, Urine (96-120 hours, #1 male): 1.2 | Excretion of Radioactivity, Cage Wash (96-120 hours, #2 male): 0.2 | Excretion of Radioactivity, Feces (96-120 hours, #2 male): 4.1 | Excretion of Radioactivity, Urine (96-120 hours, #2 male): 1.5 | Excretion of Radioactivity, Cage Wash (96-120 hours, #3 male): 0.2 | Excretion of Radioactivity, Feces (96-120 hours, #3 male): 6.4 | Excretion of Radioactivity, Urine (96-120 hours, #3 male): 1.6 | Excretion of Radioactivity, Cage Wash (96-120 hours, Mean): 0.2 | Excretion of Radioactivity, Feces (96-120 hours, Mean): 5.3 | Excretion of Radioactivity, Urine (96-120 hours, Mean): 1.4 | Excretion of Radioactivity, Cage Wash (120-144 hours, #1 male): 0.1 | Excretion of Radioactivity, Feces (120-144 hours, #1 male): 3.5 | Excretion of Radioactivity, Urine (120-144 hours, #1 male): 0.9 | Excretion of Radioactivity, Cage Wash (120-144 hours, #2 male): 0.1 | Excretion of Radioactivity, Feces (120-144 hours, #2 male): 3.5 | Excretion of Radioactivity, Urine (120-144 hours, #2 male): 1.3 | Excretion of Radioactivity, Cage Wash (120-144 hours, #3 male): 0.3 | Excretion of Radioactivity, Feces (120-144 hours, #3 male): 4.3 | Excretion of Radioactivity, Urine (120-144 hours, #3 male): 1.3 | Excretion of Radioactivity, Cage Wash (120-144 hours, Mean): 0.2 | Excretion of Radioactivity, Feces (120-144 hours, Mean): 3.8 | Excretion of Radioactivity, Urine (120-144 hours, Mean): 1.2 | Excretion of Radioactivity, Urine (144-162 hours, #1 male): 0.8 | Excretion of Radioactivity, Urine (144-162 hours, #2 male): 1.0 | Excretion of Radioactivity, Urine (144-162 hours, #3 male): 1.2 | Excretion of Radioactivity, Urine (144-162 hours, Mean): 1.0 | Excretion of Radioactivity, Cage Wash (144-168 hours, #1 male): 0.2 | Excretion of Radioactivity, Feces (144-168 hours, #1 male): 3.0 | Excretion of Radioactivity, Cage Wash (144-168 hours, #2 male): 0.2 | Excretion of Radioactivity, Feces (144-168 hours, #2 male): 3.2 | Excretion of Radioactivity, Cage Wash (144-168 hours, #3 male): 0.2 | Excretion of Radioactivity, Feces (144-168 hours, #3 male): 3.1 | Excretion of Radioactivity, Cage Wash (144-168 hours, Mean): 0.2 | Excretion of Radioactivity, Feces (144-168 hours, Mean): 3.1 | Recovery of Radioactivity, Total (168 hour collection period, #1 male): 96.7 % administered dose | Recovery of Radioactivity, Total (168 hour collection period, #2 male): 103.0 % administered dose | Recovery of Radioactivity, Cage Washings [1]: *1.3 % administered dose | Recovery of Radioactivity, Total [1]: 103.2 % administered dose | Recovery of Radioactivity, Total (168 hour collection period, Mean): 101.0 % administered dose | Recovery of Radioactivity, Expired air 1 (#1 male): *<0.1 % administered dose | Recovery of Radioactivity, Expired air 2 (#1 male): *<0.1 % administered dose | Recovery of Radioactivity, Expired air 1 (#2 male): *<0.1 % administered dose | Recovery of Radioactivity, Expired air 2 (#2 male): *<0.1 % administered dose | Recovery of Radioactivity, Expired air 1 (#3 male): *<0.1 % administered dose | Recovery of Radioactivity, Expired air 2 (#3 male): *<0.1 % administered dose | Recovery of Radioactivity, Expired air 1 (Mean): ^+<0.1 % administered dose | Recovery of Radioactivity, Expired air 2 (Mean): ^+<0.1 % administered dose | Recovery of Radioactivity, Carcass (#1 male): 11.3 % administered dose | Recovery of Radioactivity, GI Tract (#1 male): 13.8 % administered dose | Recovery of Radioactivity, Carcass (#2 male): 14.1 % administered dose | Recovery of Radioactivity, GI Tract (#2 male): 13.3 % administered dose | Recovery of Radioactivity, Carcass (#3 male): 14.9 % administered dose | Recovery of Radioactivity, GI Tract (#3 male): 10.5 % administered dose | Recovery of Radioactivity, Carcass (Mean): ~13.5 % administered dose | Recovery of Radioactivity, GI Tract (Mean): ~12.5 % administered dose | Dose recovered in excreta and cage washings (mean, full 168 hour collection period): 75.0% | Administered radioactive dose recovered (total) (range over three rats, 168 hours): 96.7-103.2% | Dose recovered in the excreta (up to 120 hours after dosing): ~66 % of the dose

From patent US20070015780A1, “Method of treating cancer with azaspirane compositions” (priority 2003, published 2007)
